PubChem BioAssay (NCI)
Where “and” joins values, the source holds several entries; their conditions need not be identical. Equal values may be shown once.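 All cell lines were grown in 96-well plates and treated with compound for 48 hours. GI50 marks 50% less growth. The concentration for full growth arrest is given as TGI.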 Where a SMILES comes first, the peptide text is derived from it. [ ]: non-standard residue; d: D form. The star is where a group is joined. Decanoyl = CCCCCCCCCC(=O)*; Leu(ol) = CC(C)C[C@H](N)CO; Iva = CC[C@](C)(N)C(=O)O; Aib = CC(C)(N)C(=O)O

The compounds below were run on MDA-MB-468 breast (assay: growth of human tumour cells (NCI), 48 h).

| SMILES | GI50 | TGI |
| --- | --- | --- |
| Cn1c(=O)n(CCCO)c(=O)c2c1nc(Oc1cccc(OC(F)(F)F)c1)n2Cc1ccc(Cl)cc1 | 12900 nM | 29900 nM |
| CCNCCCn1c2c(c3ccc(F)cc3c1=O)C(=O)c1cc(OC)cnc1-2 | 139 nM | 312 nM |
| N#Cc1c(-c2ccc(Cl)cc2)csc1NC(=O)Nc1ccc(Cl)c(C(F)(F)F)c1 | 186 nM | 1510 nM |
| C#Cc1ccc(NC(=O)c2ccc(/C=C/C(=O)c3nccn3C)cc2)c(F)c1 | 1240 nM | 4420 nM |
| O=C(Nc1ccc(-n2cc(-c3ccncc3)c(-c3ccc(O)c(Cl)c3)n2)cc1)c1cc(C(F)(F)F)cc(C(F)(F)F)c1 | 6060 nM | > 25000 nM |
| COc1cc(/C=C/C(=O)c2ccc(Nc3nc(Nc4ccc(F)cc4)nc(Nc4ccc(Cl)cc4)n3)cc2)cc(OC)c1OC | 1340 nM | 3750 nM |
| COc1ccc(-c2nnc(COc3ccc(Cl)cc3Cl)o2)cc1OC | 7320 nM | 54400 nM |
| CC1(C)CCC2(CC1)N[C@@H](C(=O)N[C@@H]1CC[C@@H](C(N)=O)OC1)[C@H](c1ccnc(Cl)c1F)[C@]21C(=O)Nc2cc(Cl)ccc21 | 2240 nM | 5630 nM |
| COc1cc(/C=C/C(=O)Nc2ccc3c(c2)/C(=C\c2cccn2C)C(=O)N3)cc(OC)c1OC | 3390 nM | 25200 nM |
| O=[N+]([O-])c1ccc(C(Br)c2ccc([N+](=O)[O-])cc2)cc1 | 11500 nM | 25900 nM |
| O=c1c2c([nH]c3ccccc13)CCCC2 | 16700 nM | > 100000 nM |
| Oc1ccc(CSc2nnc(-c3ccc(Cl)cc3)n2-c2ccccc2)c2cccnc12 | 1190 nM | > 100000 nM |
| COc1ccc(-c2c(-c3cc(OC)c(OC)c(OC)c3)nc3sc(C4CC4)nn23)cc1OC | 1900 nM | 31400 nM |
| CCCCCCCCCC(=O)NC(C)(C)C(=O)N1CCC[C@H]1C(=O)N[C@@H](CC(C)C)C(=O)N[C@@](C)(CC)C(=O)N[C@@H](CCC(N)=O)C(=O)N[C@H](CCC(N)=O)C(=O)NC(C)(C)C(=O)NC(C)(C)C(=O)N[C@@H](CCC(N)=O)C(=O)N[C@H](CC(C)C)C(=O)N[C@H](CO)CC(C)C (Decanoyl-[Aib]PL[Iva]Q[dQ][Aib][Aib]Q[dL][Leu(ol)]) | 1790 nM | 3340 nM |
| C=CCn1c(SCC(=O)Nc2ccc(C(=O)/C=C/c3cc(OC)c(OC)c(OC)c3)cc2)nnc1-c1ccc(Cl)cc1 | 3470 nM | 26600 nM |
| C=C1CC2(OC1=O)C(=O)N(C)c1ccc(I)cc12 (centres undefined) | 537 nM | 2760 nM |
| COC(=O)[C@@H](C)C[C@H](Cc1ccccc1)NC(=O)c1cccc([C@@H](C[C@H](C(C)C)N(C)C(=O)[C@@H](NC(=O)[C@H]2CCCCN2C)C2CC2)OC(C)=O)n1 | 3.33 nM | 33300 nM and > 100000 nM |
| O=C(Nc1cccc(-n2ccc3c(NC(=O)c4ccccc4)nccc32)c1)Nc1ccc(Cl)c(C(F)(F)F)c1 | 257 nM | 3360 nM |
| COc1cc(C(=O)c2c(-c3ccccc3)oc3c(OC)cccc23)cc(OC)c1O | 936 nM | 7220 nM |

| SMILES | GI50 | TGI |
| --- | --- | --- |
| C=C1c2c(C)nn(-c3ccc(OC)cc3)c2N(C)C23C[C@@H]1C1(C)c4c(C)nn(-c5ccc(OC)cc5)c4N(C)C(C)(C[C@H]12)C3 (some centres undefined) | 2500 nM | 12800 nM |
| N#C/C(=C\c1cn(Cc2ccccc2)c2ccccc12)C(=O)Nc1ncc(Cc2ccccc2Cl)s1 | 1840 nM | 4680 nM |
| C[CH2][Sn]([CH2]C)([O]C(=O)c1cccc(OC)c1)[O][Sn]([CH2]C)([CH2]C)[O]C(=O)c1cccc(OC)c1 | 5530 nM | 20800 nM |
| COC1=CC(=O)c2c(ccc3ncnc(N)c23)C1=O | 1140 nM | 2770 nM |
| Brc1ccc(SCN(CSc2ccc(Br)cc2)Cc2ccccc2)cc1 | 6450 nM | 30600 nM |
| COc1cccc2c1C(=O)c1c(O)c3c(c(O)c1C2=O)CC(O)(/C(C)=N/NC(=O)CCCCC(=O)N/N=C(\C)C1(O)Cc2c(O)c4c(c(O)c2C(OC2CC(N)C(O)C(C)O2)C1)C(=O)c1c(OC)cccc1C4=O)CC3OC1CC(N)C(O)C(C)O1 (centres undefined) | 93.5 nM | 251 nM |
| NS(=O)(=O)c1ccc(N=Cc2c(O)[nH]c3ccc4ncsc4c23)cc1 | 488 nM and 472 nM | 1140 nM and 1080 nM |
| CCOC(=O)c1ccc2c(c1)[n+](=O)c(C(=O)C1CCCS1)c(C(F)(F)F)n2[O-] (centres undefined) | 250 nM | 967 nM |
| COc1ncc(-c2ccc3nccc(C#CCCCCC(=O)O)c3c2)cc1NS(=O)(=O)c1ccc(F)cc1F | 132 nM | 1900 nM |
| C=C1C(=O)O[C@H]2[C@H]1CC/C(CNC(=O)c1cccc3ccccc13)=C\CC[C@@]1(C)O[C@@H]21 | 1380 nM | 4240 nM |
| O=C(/C=C/c1cc2ccccc2[nH]c1=O)c1ccc(Cl)cc1 | 17400 nM | 35200 nM |
| Cc1c([C@H](C(Cl)Cl)[C@H](O)[C@H]2C[C@H](C)C(=O)O2)ccc2c1C(=O)[C@H]1[C@H]2C[C@@H](Br)[C@@]23O[C@@H](CO[C@H]2O)CC13C (some centres undefined) | 129 nM | 922 nM |
| Nc1n[n+](=O)c2ccccc2n1O | 19600 nM | 67000 nM |
| COc1ccc2c(c1)oc1c(C)c3c(c(C)c12)C(=O)N(N)C3=O | > 100000 nM | > 100000 nM |
| CCOc1ccc(C(=O)Nc2ncc(Cc3ccc(F)cc3)s2)cc1 | 266 nM | > 100000 nM |
| O=C(NC(=S)Nc1ccccn1)c1ccccc1 | 12500 nM | > 100000 nM |
| CCCSc1ccc2nc(NC(=O)OC)[nH]c2c1 | 210 nM | 702 nM |
| C1=C/COCc2cc(ccc2OCCN2CCCC2)Nc2nccc(n2)-c2cccc(c2)COC/1 | 396 nM and 562 nM | 1480 nM and 2010 nM |
